Results on 2 compounds are retold here after patent publication US20220226470A1, “ANTIBODIES AND METHODS FOR TREATMENT OF INFLUENZA A INFECTION” (HUMABS BIOMED SA, priority 2019, published 2022).

Test in all cases: microbe, parasite or virus in culture
Holding throughout (type): cell-based

One assay relates to H3N2 virus. As to conditions: Influenza A virus, H3N2, MDCK.
The test system of a further assay is H1N1 virus. As to conditions: Influenza A virus, H1N1, MDCK.
The test system of the next assay is H3N2 and H1N1 strains. As to conditions: Influenza A virus, MDCK, read-out: relative calculated IC50.

In general, pIC50 refers to the IC50 on a negative log10 scale, so that one unit is a factor of ten.

pIC50: −log10 of the molar value.

With `CCOC(=O)C1=C[C@@H](OC(CC)CC)[C@H](NC(C)=O)[C@@H](N)C1` [oseltamivir, reference compound], the pIC50 was 8.15 in the assay on H3N2 virus and 8.04 with H1N1 virus.

With `CC(=O)N[C@H]1[C@H]([C@H](O)[C@H](O)CO)OC(C(=O)O)=C[C@@H]1N=C(N)N` [zanamivir, reference compound], in the assay on H3N2 and H1N1 strains, the pIC50 is 7.86 to 7.97.
